# According to patent US11768156B2, “Methods and compositions for assessing cell viability” (Life Technologies Corporation, priority 2017, dated 2023):
# Assays:
# Format in all cases: cell-based
# Jurkat cells [1] = test: Flow cytometry of live and heat-treated Jurkat cells stained in PBS or complete media
# Jurkat cells [2] = tested on: Jurkat cells
# untreated Jurkat cells = test: Flow cytometry of untreated Jurkat cells in PBS or complete media; conditions: 25 μM, five minutes, PBS and complete media
# Protocol: Populations of untreated Jurkat cells in either PBS or complete media were incubated with 25 μM Compound 2 for five minutes and analyzed by flow cytometry. Results are shown in FIGS. 4A-4B (PBS and complete media, respectively).
# Jurkat cells [3] = test: Flow cytometry of 50% live/50% dead Jurkat cell mixtures fixed with 4% formaldehyde; conditions: 25 μM dye, PBS or complete media, substantial majority of live cells
# Jurkat cells [4] = test: Flow cytometry of 50% live/50% dead Jurkat cell mixtures, fixed and permeabilized
structure (smiles),measurement,setting,value
N=c1ccc2c(-c3ccc(C(=O)NCCCCCNC(=O)CCCc4ccc(N(CCCl)CCCl)cc4)cc3C(=O)O)c3ccc(N)c(S(=O)(=O)O)c3oc-2c1S(=O)(=O)O [Compound 2],variation in intensity of staining due to the presence of complete media,"Jurkat cells [1]; 25 μM dye, PBS versus complete media",little to no variation in intensity of staining
same,separation of live and dead cells in histograms,"Jurkat cells [1]; 25 μM dye, stained in PBS and in complete media (RPMI+10FBS), 488 nm excitation, 530/30 nm emission",clear separation of live and dead cells
same,"histogram peaks for staining in media versus in PBS (FIGS. 1B, 1C)","Jurkat cells [1]; live and dead cell peaks, media and PBS",overlap
same,"difference of unstained control from live cell peaks, peak to peak",Jurkat cells [2],1-1.5 logs
same,separation of dead cell peaks from the live cell peaks,Jurkat cells [2],good separation
same,"separation of dead cells from live cells, peak to peak",Jurkat cells [2],over 2 logs
same,staining of live cells (versus unstained control),Jurkat cells [2],negligible
same,strongly labeled peaks corresponding to dead cells,untreated Jurkat cells,7-14 % of total cells
same,separation of live cells from dead cells,Jurkat cells [3],two logs of separation
same,separation of live cells from dead cells,"Jurkat cells [4]; fixed and permeabilized, 25 μM dye, PBS or complete media, substantial majority of live cells",two logs of separation
same,"histogram peaks for staining in media versus in PBS (FIGS. 3A, 3B)","Jurkat cells [4]; fixed, permeabilized cells",mostly or partially overlap
